Values joined by “and” are separate entries in the source; they are usually repeats but may differ in a detail not shown here. Equal values may be shown once. ± gives the expanded uncertainty stated by the source.
Conditions: Liquid, Vibrating tube method

CCCC(=O)OCC(COC(=O)CCC)(COC(=O)CCC)COC(=O)CCC [pentaerythritol tetrabutyrate]
Conditions	mass density
283.16 K, 23020 kPa	1072.1 ± 1.3 kg/m3
283.16 K, 23036 kPa	1072.1 ± 1.3 kg/m3
283.16 K, 23052 kPa	1072.2 ± 1.3 kg/m3
283.16 K, 23069 kPa	1072.1 ± 1.3 kg/m3
283.16 K, 23089 kPa	1072.1 ± 1.3 kg/m3
283.16 K, 23106 kPa	1072.1 ± 1.3 kg/m3
283.16 K, 23123 kPa	1072.2 ± 1.3 kg/m3
283.16 K, 23269 kPa	1072.2 ± 1.3 kg/m3
283.16 K, 23431 kPa	1072.4 ± 1.3 kg/m3
283.16 K, 23452 kPa	1072.4 ± 1.3 kg/m3
283.16 K, 23468 kPa	1072.3 ± 1.3 kg/m3
283.16 K, 23490 kPa	1072.3 ± 1.3 kg/m3
283.16 K, 23507 kPa	1072.4 ± 1.3 kg/m3
283.16 K, 23524 kPa	1072.5 ± 1.3 kg/m3
283.16 K, 23541 kPa	1072.4 ± 1.3 kg/m3
283.16 K, 23562 kPa	1072.4 ± 1.3 kg/m3
283.16 K, 23580 kPa	1072.5 ± 1.3 kg/m3
283.16 K, 23601 kPa	1072.4 ± 1.3 kg/m3
283.16 K, 23619 kPa	1072.4 ± 1.3 kg/m3
283.16 K, 23636 kPa	1072.4 ± 1.3 kg/m3
283.16 K, 23657 kPa	1072.3 ± 1.3 kg/m3
283.16 K, 23675 kPa	1072.4 ± 1.3 kg/m3
283.16 K, 23692 kPa	1072.5 ± 1.3 kg/m3
283.16 K, 23710 kPa	1072.6 ± 1.3 kg/m3
283.16 K, 23767 kPa	1072.5 ± 1.3 kg/m3
283.16 K, 23788 kPa	1072.6 ± 1.3 kg/m3
283.16 K, 23806 kPa	1072.5 ± 1.3 kg/m3
283.16 K, 23824 kPa	1072.5 ± 1.3 kg/m3
283.16 K, 23846 kPa	1072.6 ± 1.3 kg/m3
283.16 K, 23864 kPa	1072.6 ± 1.3 kg/m3
283.16 K, 24034 kPa	1072.7 ± 1.3 kg/m3
283.16 K, 24056 kPa	1072.8 ± 1.3 kg/m3
283.16 K, 24075 kPa	1072.7 ± 1.3 kg/m3
283.16 K, 24094 kPa	1072.7 ± 1.3 kg/m3
283.16 K, 24114 kPa	1072.6 ± 1.3 kg/m3
283.16 K, 24135 kPa	1072.6 ± 1.3 kg/m3
283.16 K, 24154 kPa	1072.8 ± 1.3 kg/m3
283.16 K, 24172 kPa	1072.7 ± 1.3 kg/m3
283.16 K, 24191 kPa	1072.6 ± 1.3 kg/m3
283.16 K, 24213 kPa	1072.7 ± 1.3 kg/m3
283.16 K, 24231 kPa	1072.8 ± 1.3 kg/m3
283.16 K, 24254 kPa	1072.9 ± 1.3 kg/m3
283.16 K, 24332 kPa	1072.7 ± 1.3 kg/m3
283.16 K, 24351 kPa	1072.9 ± 1.3 kg/m3
283.16 K, 24370 kPa	1072.7 ± 1.3 kg/m3
283.16 K, 24392 kPa	1072.7 ± 1.3 kg/m3
283.16 K, 24412 kPa	1072.8 ± 1.3 kg/m3
283.16 K, 24431 kPa	1072.9 ± 1.3 kg/m3
283.16 K, 24453 kPa	1072.9 ± 1.3 kg/m3
283.16 K, 24472 kPa	1072.9 ± 1.3 kg/m3
283.16 K, 24494 kPa	1072.9 ± 1.3 kg/m3
283.16 K, 24514 kPa	1072.9 ± 1.3 kg/m3
283.16 K, 24532 kPa	1072.9 ± 1.3 kg/m3
283.16 K, 24551 kPa	1072.9 ± 1.3 kg/m3
283.16 K, 24574 kPa	1072.9 ± 1.3 kg/m3
283.16 K, 24593 kPa	1072.9 ± 1.3 kg/m3
283.16 K, 24613 kPa	1073 ± 1.3 kg/m3
283.16 K, 24636 kPa	1072.9 ± 1.3 kg/m3
283.16 K, 24656 kPa	1073 ± 1.3 kg/m3
283.16 K, 24989 kPa	1073.1 ± 1.3 kg/m3
283.16 K, 25506 kPa	1073.5 ± 1.3 kg/m3
283.16 K, 25531 kPa	1073.5 ± 1.3 kg/m3
283.16 K, 25552 kPa	1073.5 ± 1.3 kg/m3
283.16 K, 25573 kPa	1073.4 ± 1.3 kg/m3
283.16 K, 26529 kPa	1073.9 ± 1.3 kg/m3
283.16 K, 26552 kPa	1074 ± 1.3 kg/m3
283.16 K, 26575 kPa	1074 ± 1.3 kg/m3
283.16 K, 26603 kPa	1073.9 ± 1.3 kg/m3
283.16 K, 26626 kPa	1074 ± 1.3 kg/m3
283.16 K, 26649 kPa	1074 ± 1.3 kg/m3
283.16 K, 26676 kPa	1073.9 ± 1.3 kg/m3
283.16 K, 26698 kPa	1074 ± 1.3 kg/m3
283.16 K, 29351 kPa	1075.5 ± 1.3 kg/m3
283.16 K, 29380 kPa	1075.4 ± 1.3 kg/m3
283.16 K, 29409 kPa	1075.5 ± 1.3 kg/m3
283.16 K, 33957 kPa	1077.9 ± 1.4 kg/m3
283.16 K, 34005 kPa	1077.8 ± 1.4 kg/m3
283.16 K, 34045 kPa	1078 ± 1.4 kg/m3
283.16 K, 34086 kPa	1077.9 ± 1.4 kg/m3
283.16 K, 34136 kPa	1078 ± 1.4 kg/m3
283.16 K, 34523 kPa	1078 ± 1.4 kg/m3
283.16 K, 34524 kPa	1078.1 ± 1.4 kg/m3
283.16 K, 34525 kPa	1078.1 ± 1.4 kg/m3 and 1078 ± 1.4 kg/m3
283.16 K, 34526 kPa	1078.2 ± 1.4 kg/m3 and 1078.1 ± 1.4 kg/m3
283.16 K, 34527 kPa	1078.1 ± 1.4 kg/m3 and 1078.2 ± 1.4 kg/m3
283.16 K, 34528 kPa	1078.2 ± 1.4 kg/m3 and 1078.1 ± 1.4 kg/m3
283.16 K, 34529 kPa	1078.1 ± 1.4 kg/m3
283.17 K, 5010.1 kPa	1062 ± 1.3 kg/m3
283.17 K, 5010.7 kPa	1062.1 ± 1.3 kg/m3
283.17 K, 5010.8 kPa	1062 ± 1.3 kg/m3
283.17 K, 5011 kPa	1062 ± 1.3 kg/m3
283.17 K, 5011.2 kPa	1062 ± 1.3 kg/m3 and 1062.1 ± 1.3 kg/m3
283.17 K, 5011.5 kPa	1062.1 ± 1.3 kg/m3
283.17 K, 5026.1 kPa	1062 ± 1.3 kg/m3
283.17 K, 5026.2 kPa	1061.9 ± 1.3 kg/m3
283.17 K, 5026.4 kPa	1062 ± 1.3 kg/m3
283.17 K, 5482.5 kPa	1062.3 ± 1.3 kg/m3
283.17 K, 5493.4 kPa	1062.3 ± 1.3 kg/m3
283.17 K, 5500 kPa	1062.3 ± 1.3 kg/m3
283.17 K, 5505.1 kPa	1062.3 ± 1.3 kg/m3
283.17 K, 6286.6 kPa	1062.7 ± 1.3 kg/m3
283.17 K, 6293.2 kPa	1062.8 ± 1.3 kg/m3
283.17 K, 34163 kPa	1077.8 ± 1.4 kg/m3
283.17 K, 34186 kPa	1077.9 ± 1.4 kg/m3
283.17 K, 34206 kPa	1078 ± 1.4 kg/m3
283.17 K, 34224 kPa	1077.9 ± 1.4 kg/m3
283.17 K, 34234 kPa	1077.9 ± 1.4 kg/m3
283.17 K, 34519 kPa	1078.2 ± 1.4 kg/m3 and 1078.1 ± 1.4 kg/m3
283.17 K, 34520 kPa	1078.1 ± 1.4 kg/m3
283.17 K, 34521 kPa	1078.2 ± 1.4 kg/m3 and 1078.1 ± 1.4 kg/m3
283.17 K, 34522 kPa	1078 ± 1.4 kg/m3 and 1078.1 ± 1.4 kg/m3
283.17 K, 34523 kPa	1078.2 ± 1.4 kg/m3
283.17 K, 34524 kPa	1078.2 ± 1.4 kg/m3
303.15 K, 13139 kPa	1050.5 ± 1.3 kg/m3
303.15 K, 20352 kPa	1054.9 ± 1.3 kg/m3
303.15 K, 20397 kPa	1055 ± 1.3 kg/m3
303.15 K, 20435 kPa	1055.1 ± 1.3 kg/m3
303.15 K, 21135 kPa	1055.3 ± 1.3 kg/m3
303.15 K, 21185 kPa	1055.4 ± 1.3 kg/m3
303.15 K, 21226 kPa	1055.4 ± 1.3 kg/m3
303.15 K, 21276 kPa	1055.5 ± 1.3 kg/m3
303.15 K, 21416 kPa	1055.6 ± 1.3 kg/m3
303.15 K, 32925 kPa	1062.1 ± 1.3 kg/m3
303.15 K, 32967 kPa	1062.1 ± 1.3 kg/m3
303.15 K, 33008 kPa	1062.1 ± 1.3 kg/m3
303.15 K, 33049 kPa	1062.2 ± 1.3 kg/m3
303.16 K, 104.1 kPa	1042.1 ± 1.2 kg/m3
303.16 K, 104.5 kPa	1042.2 ± 1.2 kg/m3
303.16 K, 105.2 kPa	1042.1 ± 1.2 kg/m3
303.16 K, 105.7 kPa	1042.2 ± 1.2 kg/m3
303.16 K, 106 kPa	1042.3 ± 1.2 kg/m3
303.16 K, 106.2 kPa	1042.2 ± 1.2 kg/m3
303.16 K, 106.4 kPa	1042.2 ± 1.2 kg/m3
303.16 K, 106.7 kPa	1042.3 ± 1.2 kg/m3
303.16 K, 108.3 kPa	1042.3 ± 1.2 kg/m3
303.16 K, 112.7 kPa	1042.2 ± 1.2 kg/m3
303.16 K, 117.7 kPa	1042.3 ± 1.2 kg/m3
303.16 K, 124.5 kPa	1042.2 ± 1.2 kg/m3
303.16 K, 132.1 kPa	1042.1 ± 1.2 kg/m3
303.16 K, 137.5 kPa	1042.1 ± 1.2 kg/m3
303.16 K, 143.9 kPa	1042.3 ± 1.2 kg/m3
303.16 K, 150.9 kPa	1042.3 ± 1.2 kg/m3
303.16 K, 159.9 kPa	1042.2 ± 1.2 kg/m3
303.16 K, 169 kPa	1042.2 ± 1.2 kg/m3
303.16 K, 180.8 kPa	1042.3 ± 1.2 kg/m3
303.16 K, 192.3 kPa	1042.2 ± 1.2 kg/m3
303.16 K, 204.8 kPa	1042.2 ± 1.2 kg/m3

— the NIST ThermoML archive (doi:10.1021/je060271a)
